Measurements as given in patent US20240010685A1, “RNA SENSORS AND USES THEREOF” (YISSUM RESEARCH DEVELOPMENT COMPANY OF THE HEBREW …, priority 2020, published 2024).
Several values for one entry are separate records, joined by “and”; a condition that tells them apart may be missing. Equal entries are not always repeated.

Key:
complementary RNA [1] = assay: photophysical properties of duplex cpFIT-PNAs with complementary RNA (fluorescence spectrometry); assay type: physicochemical; details: for BR (brightness) / εmax / λmax, abs / Φ (quantum yield, QY): duplex with complementary RNA; for Φ (quantum yield, QY): relative to Cresyl Violet, 3 μM FIT-PNA in PBS pH 7; for I/I0: fluorescence enhancement, duplex with complementary RNA vs single strand; for enhancement upon duplex formation with complementary RNA: [FIT-PNA]=3 μM, [RNA]=4.5 μM
Procedure: (A) set 1 showing fluorescence of FIT-PNA:RNA duplex for FIT-PNAs 1-4, (B) set 2 showing fluorescence of FIT-PNA:RNA duplex for FIT-PNAs 5-7 and, (C) enhanced fluorescence of bis-cpFIT-PNAs (4 and 7) after RNA hybridization. [FIT-PNA]=[cpFIT-PNA]=3 μM, [RNA]=4.5 μM.
Fluorescence spectra were recorded by using a Jasco FT-6500 spectrometer. Measurements were carried out in fluorescence quartz cuvettes (10 mm) at a 3 μM concentration of FIT-PNA in a PBS buffered solution (100 mM NaCl, 10 mM NaH2PO4, pH 7). Quantum yields were determined relative to Cresyl Violet in PBS^3. PNAs were hybridized to complementary RNA using a 1:1.5 mixture of PNA:RNA at 37° C. for 1-2 hr. Samples were excited at 575 nm and emission spectra were recorded at 585-800 nm.

complementary RNA [2] = assay: Tm of RNA:PNA duplexes (duplex stability); assay type: binding; design: ΔTm: unit not given here; details: for Tm: RNA:PNA duplex; for ΔTm: vs unmodified control FIT-PNA of the set (1 or 5)
Procedure: In addition, the enhancement upon duplex formation with complementary RNA observed for these FIT-PNAs (4 and 7) was quite dramatic; 47-fold for FIT-PNA 7 and 46-fold for FIT-PNA 4 (FIG. 1B). The effect of cpPNA monomers to duplex stability was assessed by measuring Tm for all RNA:PNA duplexes (Table 2). The stabilizing effect was smaller for FIT-PNA in comparison to that reported for cpPNA. It is believed that this is due to the close proximity of the modified bases to the bulkier BisQ surrogate base in comparison to natural bases. For all measurements an additional transition at 60° C. was observed.

[3] = tested on: BRAF V600E point mutation; assay: fluorescence spectra of BRAF FIT-PNA with fully matched RNA (mutant) and mis-match RNA (WT); details: 1 μM PNA
Text: The data points to the added value of introducing the PEG8 linker. Clearly, the addition of the PEG8 linker improves the signal for fully matched RNA without losing the discrimination for the SNP. The addition of cpPNAs on both sides of BisQ (Table 2) results in an increased fluorescence in signal with mutant RNA (FIG. 6), however, the signal for WT RNA (with mismatch) also increases. This leads to some loss of discrimination for this SNP.
FIGS. 5A-B depict the added value of the PEG8 linker. Fluorescence spectra of CLIP6 FIT-PNA (5A, right) and, CLIP6-PEG8-FIT-PNA (5B, left) with fully matched RNA (mutant) and mis-match RNA (WT).
FIG. 6 depicts the increase in fluorescence for BRAF FIT-PNA substituted with cp. Fluorescence spectra of CLIP6-PEG8-cpFIT-PNA (1 μM) with fully matched RNA (mutant, (1.5 μM)) and mis-match RNA (WT, (1.5 μM)). A two-fold increase in fluorescence is obtained in comparison to the non-modified FIT-PNA (CLIP6-PEG8-FIT-PNA). An 18-fold enhancement in fluorescence is observed for CLIP6-PEG8-cpFIT-PNA in duplex form (with complementary RNA) in comparison to single strand.

CCAT1 = assay: fluorescence of CCAT1 FIT-PNA with RNA; details: [RNA]=1.5 μM and [FIT-PNA]=1 μM
Text: Methylating the N-7 position of Guanosine base of a PNA monomer (G+ PNA monomer) results in an improvement in the hybridization to complementary DNA whilst avoiding PNA:PNA inter- and intra-duplex formation. As enhancement of FIT-PNA fluorescence depends on the ratio between ss/ds forms (PNA/PNA:RNA), lowering the background fluorescence of ssPNA should result in greater sensitivity (i.e. increased fluorescence enhancement). In the ss form, the FIT-PNA has low background fluorescence due to […] interactions between the aromatic BisQ and adjacent aromatic PNA monomers (especially purines: G and A). As BisQ has a delocalized positive charge (from nitrogen to nitrogen), the introduction of an adjacent positive charge on G or A causes electrostatic repulsion between BisQ and G+/A+ resulting in reduced background fluorescence. […] Data points to both a decrease in signal background of ssFIT-PNA and to an increase in fluorescence in duplex form (FIT-PNA:RNA) in comparison to non-modified CCAT1 FIT-PNA (FIG. 7). […]
In some embodiments, the modified or charged bases, G^+ and A^+, may be provided with a cp group positioned in their vicinity or as a cpG^+or cpA^+ monomer, in similarity to cpBisQ (Scheme 4). […] Data points to an increase in fluorescence in duplex form (FIT-PNA:RNA) in comparison to non-modified CCAT1 FIT-PNA as well as G+ and cpG modified CCAT1 FIT-PNA sequences (FIG. 8). […]

complementary RNA [4] = assay: limit of detection (LOD) measurements, plate reader; details: overnight incubation at RT
Procedure: As used herein, the term “amount” made in reference to presence of an SOI in a sample, refers to a quantity of the SOI that is sufficient to interact with a conjugate of the invention to provide a measurable signal. This amount is in the low nM range as shown for FIT-PNA 7 (Table 2).
(§1) Fluorescence end points were recorded by using a Cytation 3 plate reader. Measurements were carried out in Greiner 96 well black plates with flat bottom, at 0.5 μM concentration in a PBS buffered solution (100 mM NaCl, 10 mM NaH2PO4, pH 7). FIT-PNAs were hybridized to complementary RNA using a 1:1.5 mixture of PNA:RNA at 37° C. for 1-2 hr or by allowing overnight incubation at RT (for limit of detection (LOD) measurements). Samples were excited at 575 nm and measured at 615 nm.

[5] = tested on: 11-mer RNAs with all three possible mismatches; assay: mismatch sensitivity of cpFIT-PNAs, plate reader; assay type: binding
Procedure: Mismatch sensitivity was evaluated for single and doubly modified cpFIT-PNAs. Mismatch sensitivity for mono-substituted cpPNAs (cpFIT-PNAs 2, 3, and 6) are presented in FIGS. 3A-B. Double substituted cpFIT PNAs 4 and 7 were compared to FIT-PNA controls (1 and 5) and are presented in FIGS. 2A-B. 11-mer RNAs with all three possible mismatches were introduced either at 3′ (to the left of BisQ) or 5′ (to the right of BisQ) positions opposite to the nearby base to BisQ. One clear observation is that cpFIT-PNAs have significant selectivity for pyrimidine-pyrimidine mismatches (CC, TU, TC, CU where underlined base refers to PNA base) in comparison to FIT-PNA controls with the exception of the CU mismatch for cpFIT-PNA 4. For cpFIT-PNA 7, TC and TU mismatches are discriminated by a factor of 7.5 and 13.9-fold (vs. full matched RNA), respectively. This is around a 3 to 5-fold increase with respect to non-modified FIT-PNA 5.
(A) double cpFIT-PNA 4 compared to FIT-PNA 1 and (B) double cpFIT-PNA 7 compared to FIT-PNA 5. FIT-PNAs were annealed to all possible 11-mer RNAs and measured on a plate reader (λex=575 λnm, Em=619 nm, n=3). [FIT-PNA]=[cpFIT-PNA]=0.5 μM, [RNA]=0.75 μM.
FIGS. 3A-B provide mismatch sensitivity of single substituted cpFIT-PNAs. (A) cpFIT-PNA 2 and 3 and (B) cpFIT-PNA 6. FIT-PNAs (0.5 μM) were annealed to all possible 11-mer RNAs (0.75 μM) and measured on a plate reader (λex=575 nm, λem=619 nm, n=3).
as §1

Substance: ^3′(4)KD-ATA-C-BisQ-TACAAC-^5′ [FIT-PNA 1, reference compound]
- BR (brightness) (complementary RNA [1]): 15 mM⁻¹ cm⁻¹ and 15.0 mM⁻¹ cm⁻¹
- εmax (complementary RNA [1]): 83.2 mM⁻¹ cm⁻¹
- λmax, abs (complementary RNA [1]): 588 nm
- Φ (quantum yield, QY) (complementary RNA [1]): 0.18
- I/I0 (complementary RNA [1]): 12
- Tm (complementary RNA [2]): 50.2 °C

Substance: ^3′(4)KD-ATA-C-BisQ-cpT-ACAAC-5′ [FIT-PNA 2]
- BR (brightness) (complementary RNA [1]): 16.4 mM⁻¹ cm⁻¹
- εmax (complementary RNA [1]): 91.0 mM⁻¹ cm⁻¹
- λmax, abs (complementary RNA [1]): 590 nm
- Φ (quantum yield, QY) (complementary RNA [1]): 0.18
- I/I0 (complementary RNA [1]): 15
- Tm (complementary RNA [2]): 53.7 °C
- ΔTm (complementary RNA [2]): (+3.5)

Substance: ^3′(4)KD-ATA-cpT-BisQ-T-ACAAC-^5′ [FIT-PNA 3]
- BR (brightness) (complementary RNA [1]): 25.7 mM⁻¹ cm⁻¹
- εmax (complementary RNA [1]): 95.2 mM⁻¹ cm⁻¹
- λmax, abs (complementary RNA [1]): 589 nm
- Φ (quantum yield, QY) (complementary RNA [1]): 0.27
- I/I0 (complementary RNA [1]): 12
- Tm (complementary RNA [2]): 53.7 °C
- ΔTm (complementary RNA [2]): (+3.5)

Substance: GATTcpT-BisQ-TCTGTAGCTAC-PEG8-CLIP6 [CLIP6-PEG8-cpFIT-PNA]
- enhancement in fluorescence in duplex form (with complementary RNA) in comparison to single strand ([3]; 1.5 μM RNA): 18 fold
- increase in fluorescence in comparison to the non-modified FIT-PNA (CLIP6-PEG8-FIT-PNA) ([3]; 1.5 μM fully matched RNA (mutant)): two-fold

Substance: CCAACCT-BisQ-G^+TAAGTG-dK4 [G^+ modified CCAT1 FIT-PNA]
- increase in fluorescence (CCAT1): 7 fold

Substance: ^3′(4)KD-ATACA-cpT-BisQ-C-AAC-^5′ [FIT-PNA 6]
- BR (brightness) (complementary RNA [1]): 29.1 mM⁻¹ cm⁻¹
- εmax (complementary RNA [1]): 85.7 mM⁻¹ cm⁻¹
- λmax, abs (complementary RNA [1]): 586 nm
- Φ (quantum yield, QY) (complementary RNA [1]): 0.34
- I/I0 (complementary RNA [1]): 46
- Tm (complementary RNA [2]): 53 °C
- ΔTm (complementary RNA [2]): (+1.2)

Substance: CCAACCT-BisQ-cpG^+TAAGTG-dK4 [cpG^+ modified CCAT1 FIT-PNA]
- increase in fluorescence (CCAT1): 10 fold

Substance: ^3′(4)KD-ATACA-cpT-BisQ-cpC-AAC-^5′ [FIT-PNA 7]
- amount of SOI sufficient to provide a measurable signal (complementary RNA [4]): low nM range
- enhancement upon duplex formation with complementary RNA (complementary RNA [1]): 47 fold
- BR (brightness) (complementary RNA [1]): 35.3 mM⁻¹ cm⁻¹
- εmax (complementary RNA [1]): 90.6 mM⁻¹ cm⁻¹
- λmax, abs (complementary RNA [1]): 586 nm
- Φ (quantum yield, QY) (complementary RNA [1]): 0.39
- I/I0 (complementary RNA [1]): 47
- Tm (complementary RNA [2]): 52.9 °C
- ΔTm (complementary RNA [2]): (+1.1)
- increase in TC/TU mismatch discrimination with respect to non-modified FIT-PNA 5 [5]: 3 to 5 fold
- TC mismatch discrimination vs. full matched RNA ([5]; 0.5 μM FIT-PNA, 0.75 μM RNA): 7.5 fold
- TU mismatch discrimination vs. full matched RNA ([5]; 0.5 μM FIT-PNA, 0.75 μM RNA): 13.9 fold

Substance: ^3′(4)KD-ATA-cpC-BisQ-cpT-ACAAC-5′ [FIT-PNA 4]
- enhancement upon duplex formation with complementary RNA (complementary RNA [1]): 46 fold
- BR (brightness) (complementary RNA [1]): 28.3 mM⁻¹ cm⁻¹
- εmax (complementary RNA [1]): 85.8 mM⁻¹ cm⁻¹
- λmax, abs (complementary RNA [1]): 590 nm
- Φ (quantum yield, QY) (complementary RNA [1]): 0.33
- I/I0 (complementary RNA [1]): 46
- Tm (complementary RNA [2]): 54.7 °C
- ΔTm (complementary RNA [2]): (+4.5)

Substance: ^3′(4)KD-ATACA-T-BisQ-C-AAC-^5′ [FIT-PNA 5, reference compound]
- BR (brightness) (complementary RNA [1]): 16.5 mM⁻¹ cm⁻¹
- εmax (complementary RNA [1]): 82.3 mM⁻¹ cm⁻¹
- λmax, abs (complementary RNA [1]): 587 nm
- Φ (quantum yield, QY) (complementary RNA [1]): 0.20
- I/I0 (complementary RNA [1]): 24
- Tm (complementary RNA [2]): 51.8 °C
